Assay results published in patent publication US5082845A, “Therapeutic xanthine derivatives for the treatment of peptic ulcer disease” (Hoechst Japan Limited, priority 1988, dated 1992).

system: stress-induced gastric ulcer in rats; experiment: Protective effect on gastric ulcer induced by restraint plus water-immersion stress in rats; type: in vivo, male Sprague-Dawley rats; settings: 10 mg/kg po, mean ± S.E., series with control (distilled water) 26.2 ± 1.6 mm
Experimental: 1.1 Protective Effect on Gastric Ulcer Induced by Restraint Plus Water-Immersion Stress in Rats
Male Sprague-Dawley rats weighing 250-300 g were used in groups of 5-34. The animals were given the compounds by the oral route after fasting overnight. Immediately, under light ether anesthesia they were placed in a restraint box and immersed in water at 20° C. for 6 or 7 hours. Then the animals were sacrificed, and their stomachs were isolated, inflated with 4 ml of 1% formalin for 10 minutes, opened along the greater curvature, and examined for the presence of gastric erosions. The longest axis of each erosion induced on the glandular section of the stomach was measured, and the sum of the lengths was defined as an ulcer index.

**Q.** Which Ulcer index does the source give for CCCn1c(=O)c2c(ncn2CCCCCC(O)CO)n(CC)c1=O (stereo not drawn) [Compound 13] here?
**A.** 8.9 ± 2.1 mm

**Q.** For CCn1c(=O)n(CC(C)O)c(=O)c2c1ncn2CCCCC(O)CO (stereo not drawn) [Compound 8, 3-Ethyl-7-(5,6-dihydroxyhexyl)-1-(2-hydroxypropyl)-xanthine], which Ulcer index is on record?
**A.** 20.7 ± 4.6 mm

**Q.** For CCn1c(=O)n(CC(C)=O)c(=O)c2c1ncn2CCCCC(O)CO (stereo not drawn) [Compound 7, 3-Ethyl-7-(5,6-dihydroxyhexyl)-1-(2-oxopropyl)-xanthine], which Ulcer index is on record?
**A.** 20.4 ± 4.1 mm

**Q.** Which Ulcer index does the source give for CCCn1cnc2c1c(=O)n(CCCCC(O)CO)c(=O)n2CC (stereo not drawn) [Compound 14] here?
**A.** 10.4 ± 1.9 mm

**Q.** Which Ulcer index does the source give for CCCn1c(=O)c2c(ncn2CCCC(O)C(C)O)n(CC)c1=O (stereo not drawn) [Compound 12] here?
**A.** 4.3 ± 0.8 mm

**Q.** For C=CCn1cnc2c1c(=O)n(CCCCC(C)O)c(=O)n2C (stereo not drawn) [Compound 21, 7-allyl-1-(5-hydroxyhexyl)-3-methylxanthine], which Ulcer index is on record?
**A.** 13.4 ± 3.2 mm

**Q.** For CCn1c(=O)n(CC(C)C)c(=O)c2c1ncn2CCCCC(O)CO (stereo not drawn) [Compound 5], which Ulcer index is on record?
**A.** 7.1 ± 1.8 mm

**Q.** Which Ulcer index does the source give for CCCCn1c(=O)c2c(ncn2CCCCC(O)CO)n(C)c1=O (stereo not drawn) [Compound 10] here?
**A.** 4.5 ± 1.4 mm

**Q.** With CCCCn1c(=O)c2c(ncn2CCCCC(C)O)n(C)c1=O (stereo not drawn) [Compound 16] as the molecule, how does the Ulcer index read?
**A.** 10.6 ± 0.9 mm

**Q.** For CCCCCn1c(=O)c2c(ncn2CCCCC(O)CO)n(CC)c1=O (stereo not drawn) [Compound 4], which Ulcer index is on record?
**A.** 9.2 ± 1.9 mm

**Q.** Which Ulcer index does the source give for C=CCn1c(=O)c2c(ncn2CCCCC(O)CO)n(CC)c1=O (stereo not drawn) [Compound 6, 1-Allyl-3-ethyl-7-(5,6-dihydroxyhexyl)-xanthine] here?
**A.** 7.0 ± 0.9 mm

same assay, conditions: Rattus norvegicus, stress-induced ulcer, 10 mg/kg po, series with control 19.7 ± 2.9 mm

**Q.** Which inhibition in vivo at 10 mg/kg does the source give for CC(=O)CCCCn1c(=O)c2c(ncn2C)n(C)c1=O [Compound 25, 1,2,3,6-tetrahydro-3,7-dimethyl-1-(5-oxohexyl)-purine-2,6-dione, reference compound] here?
**A.** 12.7%

same assay, conditions: Rattus norvegicus, stress-induced ulcer, 10 mg/kg po, series with control 26.2 ± 1.6 mm

**Q.** For CCCn1c(=O)c2c(ncn2CCCCCC(O)CO)n(CC)c1=O (stereo not drawn) [Compound 13], which inhibition in vivo at 10 mg/kg is on record?
**A.** 66%

**Q.** For CCn1c(=O)n(CC(C)O)c(=O)c2c1ncn2CCCCC(O)CO (stereo not drawn) [Compound 8, 3-Ethyl-7-(5,6-dihydroxyhexyl)-1-(2-hydroxypropyl)-xanthine], which inhibition in vivo at 10 mg/kg is on record?
**A.** 21%

**Q.** For CCn1c(=O)n(CC(C)=O)c(=O)c2c1ncn2CCCCC(O)CO (stereo not drawn) [Compound 7, 3-Ethyl-7-(5,6-dihydroxyhexyl)-1-(2-oxopropyl)-xanthine], which inhibition in vivo at 10 mg/kg is on record?
**A.** 21.9%

**Q.** Which inhibition in vivo at 10 mg/kg does the source give for CCCn1cnc2c1c(=O)n(CCCCC(O)CO)c(=O)n2CC (stereo not drawn) [Compound 14] here?
**A.** 60.2%

**Q.** For CCCn1c(=O)c2c(ncn2CCCC(O)C(C)O)n(CC)c1=O (stereo not drawn) [Compound 12], which inhibition in vivo at 10 mg/kg is on record?
**A.** 83.5%

**Q.** With C=CCn1cnc2c1c(=O)n(CCCCC(C)O)c(=O)n2C (stereo not drawn) [Compound 21, 7-allyl-1-(5-hydroxyhexyl)-3-methylxanthine] as the molecule, how does the inhibition in vivo at 10 mg/kg read?
**A.** 48.9%

**Q.** For CCn1c(=O)n(CC(C)C)c(=O)c2c1ncn2CCCCC(O)CO (stereo not drawn) [Compound 5], which inhibition in vivo at 10 mg/kg is on record?
**A.** 72.9%

**Q.** Which inhibition in vivo at 10 mg/kg does the source give for CCCCn1c(=O)c2c(ncn2CCCCC(O)CO)n(C)c1=O (stereo not drawn) [Compound 10] here?
**A.** 82.8%

**Q.** For CCCCn1c(=O)c2c(ncn2CCCCC(C)O)n(C)c1=O (stereo not drawn) [Compound 16], which inhibition in vivo at 10 mg/kg is on record?
**A.** 59.4%

**Q.** Which inhibition in vivo at 10 mg/kg does the source give for CCCCCn1c(=O)c2c(ncn2CCCCC(O)CO)n(CC)c1=O (stereo not drawn) [Compound 4] here?
**A.** 64.7%

**Q.** With C=CCn1c(=O)c2c(ncn2CCCCC(O)CO)n(CC)c1=O (stereo not drawn) [Compound 6, 1-Allyl-3-ethyl-7-(5,6-dihydroxyhexyl)-xanthine] as the molecule, how does the inhibition in vivo at 10 mg/kg read?
**A.** 73.2%

system: ethanol-induced gastric ulcer in rats; experiment: Protective effect on ethanol-induced gastric ulcer in rats; type: in vivo, male Sprague-Dawley rats; settings: 10 mg/kg po, mean ± S.E., series with control (10% EtOH) 118.8 ± 9.6 mm
Experimental: 1.2 Protective Effect on Ethanol-Induced Gastric Ulcer in Rats
Male Sprague-Dawley rats weighing 250-300 g were used in groups of 5-24. After fasting overnight, the animals were given orally the compounds. Thirty minutes later they received absolute ethanol (1 ml/body) orally and were sacrificed after 60 minutes. The stomach was removed and examined for erosions. The ulcer index was obtained in the same way as under 1.1.

**Q.** With CCCCCCn1c(=O)c2c(ncn2CCCCC(C)O)n(C)c1=O (stereo not drawn) [Compound 17] as the molecule, how does the Ulcer index read?
**A.** 13.4 ± 5.2 mm

same assay, conditions: 10 mg/kg po, mean ± S.E., series with control (distilled water) 111.6 ± 10.4 mm

**Q.** For CCCn1c(=O)c2c(ncn2CCCCCC(O)CO)n(CC)c1=O (stereo not drawn) [Compound 13], which Ulcer index is on record?
**A.** 5.0 ± 2.2 mm

**Q.** For CCCCn1c(=O)c2c(ncn2CCCCC(O)CO)n(C)c1=O (stereo not drawn) [Compound 10], which Ulcer index is on record?
**A.** 1.1 ± 0.5 mm

**Q.** Which Ulcer index does the source give for CCCCn1c(=O)c2c(ncn2CCCCC(C)O)n(C)c1=O (stereo not drawn) [Compound 16] here?
**A.** 4.1 ± 0.8 mm

**Q.** With CCCCCn1c(=O)c2c(ncn2CCCCC(O)CO)n(CC)c1=O (stereo not drawn) [Compound 4] as the molecule, how does the Ulcer index read?
**A.** 15.6 ± 5.8 mm

**Q.** With C=CCn1c(=O)c2c(ncn2CCCCC(O)CO)n(CC)c1=O (stereo not drawn) [Compound 6, 1-Allyl-3-ethyl-7-(5,6-dihydroxyhexyl)-xanthine] as the molecule, how does the Ulcer index read?
**A.** 10.7 ± 1.4 mm

same assay, conditions: Rattus norvegicus, 10 mg/kg po, series with control 111.6 ± 10.4 mm

**Q.** For CCCn1c(=O)c2c(ncn2CCCCCC(O)CO)n(CC)c1=O (stereo not drawn) [Compound 13], which inhibition in vivo at 10 mg/kg is on record?
**A.** 95.5%

**Q.** Which inhibition in vivo at 10 mg/kg does the source give for CCCCn1c(=O)c2c(ncn2CCCCC(O)CO)n(C)c1=O (stereo not drawn) [Compound 10] here?
**A.** 99%

**Q.** For CCCCn1c(=O)c2c(ncn2CCCCC(C)O)n(C)c1=O (stereo not drawn) [Compound 16], which inhibition in vivo at 10 mg/kg is on record?
**A.** 96.3%

**Q.** Which inhibition in vivo at 10 mg/kg does the source give for CCCCCn1c(=O)c2c(ncn2CCCCC(O)CO)n(CC)c1=O (stereo not drawn) [Compound 4] here?
**A.** 86%

**Q.** Which inhibition in vivo at 10 mg/kg does the source give for C=CCn1c(=O)c2c(ncn2CCCCC(O)CO)n(CC)c1=O (stereo not drawn) [Compound 6, 1-Allyl-3-ethyl-7-(5,6-dihydroxyhexyl)-xanthine] here?
**A.** 90.4%

same assay, conditions: Rattus norvegicus, 10 mg/kg po, series with control 164.7 ± 19.4 mm

**Q.** With CC(=O)CCCCn1c(=O)c2c(ncn2C)n(C)c1=O [Compound 25, 1,2,3,6-tetrahydro-3,7-dimethyl-1-(5-oxohexyl)-purine-2,6-dione, reference compound] as the molecule, how does the inhibition in vivo at 10 mg/kg read?
**A.** 78.8%

same assay, conditions: Rattus norvegicus, 10 mg/kg po, series with control (10% EtOH) 118.8 ± 9.6 mm

**Q.** With CCCCCCn1c(=O)c2c(ncn2CCCCC(C)O)n(C)c1=O (stereo not drawn) [Compound 17] as the molecule, how does the inhibition in vivo at 10 mg/kg read?
**A.** 88.7%

system: not listed separately; experiment: in vivo; settings: mouse, in vivo, ip; intraperitoneal administration, mice, 7 days (footnote b)
Experimental: LD50 values of the compounds of this invention were determined after intravenous injection or intraperitoneal administration to mice for acute toxicity test. The studies were carried out using male and female NMRI mice (n=3/group) having a body weight between 19-21 g.

**Q.** For CCCCCCn1c(=O)c2c(ncn2CCCCC(C)O)n(C)c1=O (stereo not drawn) [Compound 17], which LD50 at 168 h is on record?
**A.** 500 to 1000 mg/kg

**Q.** With CCCn1cnc2c1c(=O)n(CCCCC(O)CO)c(=O)n2CC (stereo not drawn) [Compound 14] as the molecule, how does the LD50 at 168 h read?
**A.** 300 to 600 mg/kg

same assay, conditions: mouse, in vivo; intravenous, mice, n=3/group, 7 days

**Q.** Which LD50 at 168 h does the source give for CCCn1c(=O)c2c(ncn2CCCCCC(O)CO)n(CC)c1=O (stereo not drawn) [Compound 13] here?
**A.** 200 to 400 mg/kg

**Q.** For CCn1c(=O)n(CC(C)O)c(=O)c2c1ncn2CCCCC(O)CO (stereo not drawn) [Compound 8, 3-Ethyl-7-(5,6-dihydroxyhexyl)-1-(2-hydroxypropyl)-xanthine], which LD50 at 168 h is on record?
**A.** > 200 mg/kg

**Q.** For CCn1c(=O)n(CC(C)=O)c(=O)c2c1ncn2CCCCC(O)CO (stereo not drawn) [Compound 7, 3-Ethyl-7-(5,6-dihydroxyhexyl)-1-(2-oxopropyl)-xanthine], which LD50 at 168 h is on record?
**A.** > 200 mg/kg

**Q.** With CCCn1c(=O)c2c(ncn2CCCC(O)C(C)O)n(CC)c1=O (stereo not drawn) [Compound 12] as the molecule, how does the LD50 at 168 h read?
**A.** > 200 mg/kg

**Q.** With C=CCn1cnc2c1c(=O)n(CCCCC(C)O)c(=O)n2C (stereo not drawn) [Compound 21, 7-allyl-1-(5-hydroxyhexyl)-3-methylxanthine] as the molecule, how does the LD50 at 168 h read?
**A.** 100 to 200 mg/kg

**Q.** Which LD50 at 168 h does the source give for CCn1c(=O)n(CC(C)C)c(=O)c2c1ncn2CCCCC(O)CO (stereo not drawn) [Compound 5] here?
**A.** > 200 mg/kg

**Q.** With CCCCn1c(=O)c2c(ncn2CCCCC(C)O)n(C)c1=O (stereo not drawn) [Compound 16] as the molecule, how does the LD50 at 168 h read?
**A.** 100 to 200 mg/kg

**Q.** Which LD50 at 168 h does the source give for CCCCCn1c(=O)c2c(ncn2CCCCC(O)CO)n(CC)c1=O (stereo not drawn) [Compound 4] here?
**A.** > 200 mg/kg

**Q.** For C=CCn1c(=O)c2c(ncn2CCCCC(O)CO)n(CC)c1=O (stereo not drawn) [Compound 6, 1-Allyl-3-ethyl-7-(5,6-dihydroxyhexyl)-xanthine], which LD50 at 168 h is on record?
**A.** > 200 mg/kg

system: peptic ulcer disease; experiment: not given; settings: Ter. Arkh. 57, 52-55, 1985; cited from earlier work

**Q.** For CC(=O)CCCCn1c(=O)c2c(ncn2C)n(C)c1=O [Compound 25, 1,2,3,6-tetrahydro-3,7-dimethyl-1-(5-oxohexyl)-purine-2,6-dione, reference compound], which “antiulcer effects (in words)” value is on record?
**A.** antiulcer effects
